In EP4603105A1, “PHARMACEUTICAL COMPOSITION CONTAINING CYCLIC COMPOUND HAVING SELECTIVE KRAS INHIBITORY EFFECT AGAINST HRAS AND NRAS” (CHUGAI SEIYAKU KABUSHIKI KAISHA, priority 2022, dated 2024):
Where a SMILES comes first, the peptide text is derived from it. Bridges are numbered along the chain shown (N, C = ends). [ ]: non-standard residue; d: D form. The star is where a group is joined. hPhe(3-Cl-4-CF3) = N[C@@H](CCc1ccc(C(F)(F)F)c(Cl)c1)C(=O)O; NPrPhe(4-CF3) = CCCN[C@@H](Cc1ccc(C(F)(F)F)cc1)C(=O)O; NPrPhe(4-Me) = CCCN[C@@H](Cc1ccc(C)cc1)C(=O)O; NMeGly(cPent) = CN[C@H](C(=O)O)C1CCCC1; NMeF = CN[C@@H](Cc1ccccc1)C(=O)O; NMeD = CN[C@@H](CC(=O)O)C(=O)O; NMeL = CN[C@@H](CC(C)C)C(=O)O; Pip = O=C(O)[C@@H]1CCCCN1; Morpholide = C1CN(*)CCO1; Ac5c = NC1(C(=O)O)CCCC1; Aze = O=C(O)[C@@H]1CCN1; Sar = CNCC(=O)O

Assays:
[1] = target: GDP-bound KRAS wild-type protein (Homo sapiens, UniProt P01116); experiment: Binding to KRAS by surface plasmon resonance (SPR), dissociation constant KD
Method: Surface plasmon resonance was used to analyze the binding affinity of compounds for KRAS, NRAS, and HRAS. The apparatus used was Biacore 8K, 8K+, or T200 (GE Healthcare), and the running buffer used was HBS (10 mM HEPES-NaOH, 150 mM NaCl, pH 7.4) containing 1 mM DTT, 10 mM MgCl2, 0.01% Tween 20, 10 µM GDP, and 4% DMSO.
Biotinylated Avi-tag fusion KRAS, NRAS, and HRAS proteins were expressed in E. coli BL21 (DE3) strains, and after cells were homogenized, they were purified using Streptavidin Mutein Matrix and Superdex 75. After purification, GDP-loaded KRAS, NRAS, and HRAS proteins were immobilized on the surface of Sensor Chip CAP (Cytiva) coated with Biotin CAPture Reagent in an immobilization amount of about 100 to 300 RU. Binding of each compound was evaluated by the Single Cycle Kinetics method, and a running buffer or a compound solution was added to the RAS protein non-immobilized surface and the immobilized surface to obtain a binding response. The flow rate was set to 100 µL/min, and in the compound-adding cycle, compound solutions having different concentrations were intermittently added for 75 seconds each, starting from a low concentration. […] In the blank cycle, a running buffer was intermittently added and not the compound solution. The Biotin CAPture Reagent and RAS proteins were immobilized for each cycle, and at the end of each cycle, the sensor chip was regenerated by the regeneration solution appended to the Biotin CAPture Kit (Cytiva). Measurement was carried out at 30°C.
The resulting sensorgram was subjected to curve fitting based on a 1:1 binding model on Biacore Insight Evaluation Software or T200 Evaluation Software, and thereby the dissociation constant KD of each compound with respect to KRAS, NRAS, and HRAS was determined. […] Blank indicates a compound from which the KD value with respect to NRAS or HRAS was not obtained.

[2] = tested on: human lung cancer strain NCI-H441; assay type: cell-based
In short: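 Proliferation was scored by […] measured after the reagent was added to cultures kept at 37°C in 5% carbon dioxide.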

[3] = target: GDP-bound NRAS wild-type protein (Homo sapiens, UniProt P01111); experiment: Binding to NRAS by surface plasmon resonance (SPR), KD and KD ratio to KRAS
In short: (§1)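 Compound binding is evaluated by SPR single-cycle kinetics, with concentrations added intermittently from low to high for 75 s each. Target surfaces carry GDP-loaded biotinylated Avi-RAS at about 100–300 RU, regenerated after each cycle; temperature 30°C. A 1:1 binding model gives KD.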

HRAS wild-type protein = HRAS wild-type protein (Homo sapiens, UniProt P01112); experiment: Binding to HRAS by surface plasmon resonance (SPR), KD and KD ratio to KRAS
In short: as §1

[4] = Single Cycle Kinetics, 1:1 binding model
[5] = ratio of the KD value with respect to GDP-bound NRAS wild-type protein to the KD value with respect to KRAS
[6] = ratio of the KD value with respect to HRAS wild-type protein to the KD value with respect to KRAS
[7] = ratio of KD for GDP-bound NRAS wild-type protein to KD for KRAS
[8] = ratio of KD for HRAS wild-type protein to KD for KRAS

GDP-bound NRAS wild-type protein, sequence (P01111 whole entry): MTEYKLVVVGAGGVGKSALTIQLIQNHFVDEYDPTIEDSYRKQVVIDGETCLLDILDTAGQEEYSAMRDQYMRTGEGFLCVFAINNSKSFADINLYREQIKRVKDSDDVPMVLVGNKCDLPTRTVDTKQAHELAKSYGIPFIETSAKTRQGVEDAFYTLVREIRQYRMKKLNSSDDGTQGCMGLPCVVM
GDP-bound KRAS wild-type protein, sequence (P01116 1-188 isoform P01116-2): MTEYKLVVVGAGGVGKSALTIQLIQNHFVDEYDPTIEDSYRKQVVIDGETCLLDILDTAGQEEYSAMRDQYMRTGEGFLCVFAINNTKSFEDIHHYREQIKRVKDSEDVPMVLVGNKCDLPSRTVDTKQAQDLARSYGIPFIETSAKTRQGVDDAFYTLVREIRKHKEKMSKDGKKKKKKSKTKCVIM
HRAS wild-type protein, sequence (P01112 whole entry): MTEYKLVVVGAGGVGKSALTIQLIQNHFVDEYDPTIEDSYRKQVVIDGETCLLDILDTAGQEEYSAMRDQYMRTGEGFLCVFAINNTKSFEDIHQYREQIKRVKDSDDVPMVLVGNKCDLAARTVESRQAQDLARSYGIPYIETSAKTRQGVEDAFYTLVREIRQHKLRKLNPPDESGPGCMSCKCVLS

| Compound | Kd [1, 4] [nM] | IC50 [2] [nM] | Kd ([1]; 1:1 binding model) [nM] | Kd ([1]; Single Cycle Kinetics) [nM] | NRAS /KRAS [3, 5] | HRAS /KRAS (HRAS wild-type protein; [6]) | NRAS /KRAS [3, 7] | HRAS /KRAS (HRAS wild-type protein; [8]) |
| --- | --- | --- | --- | --- | --- | --- | --- | --- |
| CC[C@H](C)[C@@H]1NC(=O)[C@H](C2CC2)N(C)C(=O)C[C@@H](C(=O)N(C)CC)N(C)C(=O)[C@H](C2CCCC2)N(C)C(=O)C2(CC(C)(C)C2)NC(=O)[C@@H]2C[C@H](C)CN2C(=O)[C@H](CCc2cc(F)c(C(F)(F)F)c(F)c2)NC(=O)CN(C)C(=O)[C@H](Cc2ccc(C(F)(F)F)cc2)N2CC/C=C\C[C@@H](C2=O)N(C)C(=O)CN(C)C1=O [PP1980] | 0.36 | 30.1 |  |  | A (a compound having 10 or more and less than 20 is denoted as A) | B (a compound having 3 or more and less than 10 is denoted as B) |  |  |
| CCO[C@@H]1C[C@H]2C(=O)NC3(CCC3)C(=O)N(C)[C@@H](C3CCCC3)C(=O)N(C)[C@H](C(=O)N(C)C)CC(=O)N(C)[C@@H](CC3CCCC3)C(=O)N[C@@H]([C@@H](C)CC)C(=O)N(C)CC(=O)N(C)[C@H]3C/C=C\CCN(C3=O)[C@@H](Cc3ccc(C)cc3)C(=O)N(C)CC(=O)N[C@@H](CCc3ccc(CC)c(F)c3)C(=O)N2C1 [PP2686] |  | 162 | 3.3 |  |  |  | A (a compound having 10 or more and less than 20 is denoted as A) | A (a compound having 10 or more and less than 20 is denoted as A) |
| CCC[C@H]1C(=O)N[C@@H]([C@@H](C)CC)C(=O)N(C2CC2)CC(=O)N(C)[C@H]2C/C=C\CCN(C2=O)[C@@H](CC2CCCCC2)C(=O)N(C)CC(=O)N[C@@H](CCc2ccc(C(F)(F)F)c(OC)c2)C(=O)N2C[C@H](OCC)C[C@H]2C(=O)N(C)C2(CCC2)C(=O)N(C)[C@@H](C(CC)CC)C(=O)N(C)[C@H](C(=O)N(C)C)CC(=O)N1C [PP2337] | 32 | 33.9 |  |  | A (a compound having 10 or more and less than 20 is denoted as A) | A (a compound having 10 or more and less than 20 is denoted as A) |  |  |
| CCCOC[C@H]1C(=O)N[C@@H]([C@@H](C)CC)C(=O)N(C)CC(=O)N(C)[C@H]2C/C=C\CCN(C2=O)[C@@H](Cc2ccc(C(F)(F)F)cc2)C(=O)N(C)CC(=O)N[C@@H](CCc2ccc(C(F)(F)F)c(OC)c2)C(=O)N2C[C@H](OCC)C[C@H]2C(=O)NC2(CCC2)C(=O)N(C)[C@@H](C2CCCC2)C(=O)N(C)[C@H](C(=O)N(C)CCC)CC(=O)N1C [PP2017] | 0.093 | 2.5 |  |  | A (a compound having 10 or more and less than 20 is denoted as A) | A (a compound having 10 or more and less than 20 is denoted as A) |  |  |
| CCO[C@@H]1C[C@H]2C(=O)NC3(CCC3)C(=O)N(C)[C@@H](C3CCCC3)C(=O)N(C)[C@H](C(=O)N(C)C)CC(=O)N(C)[C@@H](CC)C(=O)N[C@@H]([C@@H](C)CC)C(=O)N(C)CC(=O)N(C)[C@H]3CCCCCN(C3=O)[C@@H](Cc3ccc(F)cc3Cl)C(=O)N(C)CC(=O)N[C@@H](CCc3cc(F)c(C(F)(F)F)c(F)c3)C(=O)N2C1 [PP0908] |  | 38.5 |  | 0.19 |  |  | B (a compound having 3 or more and less than 10 is denoted as B) | B (a compound having 3 or more and less than 10 is denoted as B) |
| CCC[C@H]1C(=O)N[C@@H]([C@@H](C)CC)C(=O)N(C)CC(=O)N(C)[C@H]2C/C=C\CCN(C2=O)[C@@H](Cc2ccc(C)cc2)C(=O)N(C)CC(=O)N[C@@H](CCc2ccc(C(F)(F)F)c(OC)c2)C(=O)N2C[C@H](OCC)C[C@H]2C(=O)NC2(CC(C)(C)C2)C(=O)N(C)[C@@H](CC(C)C)C(=O)N(C)[C@H](C(=O)N(C)C)CC(=O)N1C [PP3008] |  | 16 | 0.38 |  |  |  | A (a compound having 10 or more and less than 20 is denoted as A) | A (a compound having 10 or more and less than 20 is denoted as A) |
| CCO[C@@H]1C[C@H]2C(=O)NC3(CC(C)(C)C3)C(=O)N(C)[C@@H](C3CCCC3)C(=O)N(C)[C@H](C(=O)N(C)CC)CC(=O)N(C)[C@H]3CC/C=C/c4ccc(cc4)C[C@@H](C(=O)N(C)CC(=O)N[C@@H](CCc4ccc(Cl)c(Cl)c4)C(=O)N2C1)N1CC/C=C\C[C@@H](C1=O)N(C)C(=O)CN(C1CC1)C(=O)[C@H]([C@@H](C)CC)NC3=O [PP2598] |  | 23 | 1.9 |  |  |  | A (a compound having 10 or more and less than 20 is denoted as A) | A (a compound having 10 or more and less than 20 is denoted as A) |

The remaining compounds from weak to strong by IC50 [2], led by results:

| Kd [1, 4] [nM] | IC50 [2] [nM] | Kd ([1]; 1:1 binding model) [nM] | Kd ([1]; Single Cycle Kinetics) [nM] | Compound | NRAS /KRAS [3, 5] | HRAS /KRAS (HRAS wild-type protein; [6]) | NRAS /KRAS [3, 7] | HRAS /KRAS (HRAS wild-type protein; [8]) |
| --- | --- | --- | --- | --- | --- | --- | --- | --- |
|  | 569 | 110 |  | CCCN1C(=O)[C@@H]2CCN2C(=O)[C@H](Cc2ccccc2)N(C)C(=O)[C@H]([C@@H](C)CC)NC(=O)[C@H](CC(C)C)N(C)C(=O)C[C@@H](C(=O)N2CCOCC2)N(C)C(=O)[C@H](C2CCCC2)N(C)C(=O)C2(CCCC2)NC(=O)[C@@H]2CCCN2C(=O)[C@H](CCc2ccc(C(F)(F)F)c(Cl)c2)NC(=O)CN(C)C(=O)[C@@H]1Cc1ccc(C(F)(F)F)cc1 [PP0209] ([NMeL]I[NMeF][Aze][NPrPhe(4-CF3)][Sar][hPhe(3-Cl-4-CF3)]P[Ac5c][NMeGly(cPent)][NMeD]-Morpholide; lactam N-11) |  |  | C (A compound having a KD ratio of 0.1 or more and less than 3 is denoted as C) | C (A compound having a KD ratio of 0.1 or more and less than 3 is denoted as C) |
|  | 160 |  | 4.5 | C=CCCC[C@H]1C(=O)N[C@@H]([C@@H](C)CC)C(=O)N(C)CC(=O)N(C)[C@H]2CCCCCN(C2=O)[C@@H](Cc2ccc(C(F)(F)F)cc2)C(=O)N(C)CC(=O)N[C@@H](CCc2cc(F)c(C(F)(F)F)c(F)c2)C(=O)N2C[C@H](OCC)C[C@H]2C(=O)N[C@](C)(CC=C)C(=O)N(C)[C@@H](C2CCCC2)C(=O)N(C)[C@H](C(=O)N2CCOCC2)CC(=O)N1C [PP0880] |  |  | B (a compound having 3 or more and less than 10 is denoted as B) | B (a compound having 3 or more and less than 10 is denoted as B) |
|  | 19.2 | 0.43 |  | CCO[C@@H]1C[C@H]2C(=O)NC3(CC(C)(C)C3)C(=O)N(C)[C@@H](C3CCCC3)C(=O)N(C)[C@H](C(=O)N(C)C)CC(=O)N(C)[C@@H]([C@@H](C)OC)C(=O)N[C@@H]([C@@H](C)CC)C(=O)N3CCC[C@H]3C(=O)N(C)[C@H]3C/C=C\CCN(C3=O)[C@@H](Cc3ccc(C(F)(F)F)cc3)C(=O)N(C)CC(=O)N[C@@H](CCc3ccc(C(F)(F)F)c(Cl)c3)C(=O)N2C1 [PP3206] |  |  | A (a compound having 10 or more and less than 20 is denoted as A) | A (a compound having 10 or more and less than 20 is denoted as A) |
| 0.2 | 12.5 |  |  | CC[C@H](C)[C@@H]1NC(=O)[C@H](CC2CC2)N(C)C(=O)C[C@@H](C(=O)N(C)CC)N(C)C(=O)[C@H](C2CCCC2)N(C)C(=O)C2(CC(C)(C)C2)NC(=O)[C@@H]2C[C@@H](C)CN2C(=O)[C@H](CCc2ccc(C(F)(F)F)c(OC)c2)NC(=O)CN(C)C(=O)[C@H](Cc2ccc(C)cc2)N2CC/C=C\C[C@@H](C2=O)N(C)C(=O)CN(C)C1=O [PP1902] | A (a compound having 10 or more and less than 20 is denoted as A) | A (a compound having 10 or more and less than 20 is denoted as A) |  |  |
|  | 2.1 | 0.16 |  | CCCN1C(=O)[C@@H]2CCN2C(=O)[C@@H]2CCCCN2C(=O)[C@H]([C@@H](C)CC)NC(=O)[C@H](CC(C)C)N(C)C(=O)C[C@@H](C(=O)N2CCOCC2)N(C)C(=O)[C@H](C2CCCC2)N(C)C(=O)C2(CCCC2)NC(=O)[C@@H]2CCCN2C(=O)[C@H](CCc2ccc(C(F)(F)F)c(Cl)c2)NC(=O)CN(C)C(=O)[C@@H]1Cc1ccc(C)cc1 [PP0070] ([NMeL]I[Pip][Aze][NPrPhe(4-Me)][Sar][hPhe(3-Cl-4-CF3)]P[Ac5c][NMeGly(cPent)][NMeD]-Morpholide; lactam N-11) |  |  | C (A compound having a KD ratio of 0.1 or more and less than 3 is denoted as C) | B (a compound having 3 or more and less than 10 is denoted as B) |
